Measurements: the supplement of paper PMC8837787

System: Saccharomyces cerevisiae ABC16-Green Monster
Assay: growth inhibition at single dose (up to 150 µM), below the 70% cut-off for dose-response; higher = more potent
Settings: 18 h; 30 °C; YPD
In short: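 Drug-sensitive S. cerevisiae ABC16-Green Monster cells were grown overnight in YPD at 30 °C and diluted to log phase (OD600 0.1–0.2). Each library compound was added at one dose of 150 µM to 200 µl culture per well in 96-well plates, in biological duplicates, with untreated cultures alongside. OD600 was read at 0 h and after 18 h at 30 °C. The value is percent growth inhibition; compounds below 70% in both replicates were not taken to dose-response.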

COc1ccc(-c2csc(NC(=O)CN3CCN(c4ncnc5c4cnn5C)CC3)n2)cc1
growth inhibition at single dose: < 70%

Nc1nc2ccc(-c3cncc(Oc4ccc(F)cc4)c3)cc2[nH]1
growth inhibition at single dose: < 70%

Cn1c(=O)n(C)c2cc(CNCCNc3ccnc4cc(Cl)ccc34)ccc21
growth inhibition at single dose: < 70%

CCCc1c(C)nc2ccc(Br)cc2c1O
growth inhibition at single dose: < 70%

Cc1ccc(C)c(-c2csc(Nc3ccc(C)c(C)c3)n2)c1
growth inhibition at single dose: < 70%

Cc1ccnc(NC(c2cccc(OCc3ccccc3)c2)c2ccc3cccnc3c2O)c1 (centres undefined)
growth inhibition at single dose: < 70%

CC1Cc2cc(C(=O)CSc3nnc(Cc4cccs4)n3C)ccc2N1S(C)(=O)=O (centres undefined)
growth inhibition at single dose: < 70%

CCCCC(O)(c1ccc(Cl)cc1)C(CN1CCOCC1)c1ccc(Cl)cc1 (centres undefined)
growth inhibition at single dose: < 70%

Cc1cc(NC(=O)C2c3ccccc3C(=O)N(CC(C)C)C2c2cccs2)no1 (centres undefined)
growth inhibition at single dose: < 70%

COc1ccc(C(=O)NC(c2ccccc2Cl)c2cc(Cl)c3cccnc3c2O)cc1 (centres undefined)
growth inhibition at single dose: < 70%

Cc1cccnc1NC(=O)c1cccc(OCc2c(C)noc2C)c1
growth inhibition at single dose: < 70%

O=C(Nc1cccc2ccccc12)N1CCN(c2ncccc2C(F)(F)F)CC1
growth inhibition at single dose: < 70%

COC(=O)c1cc(OC)c(OC)cc1NS(=O)(=O)c1ccc(Cl)cc1
growth inhibition at single dose: < 70%

CCCc1ccc(S(=O)(=O)Nc2ccc(CN3CCN(CC4CC4)CC3)cc2)cc1
growth inhibition at single dose: < 70%

O=C(Nc1nnc(-c2ccc(Cl)s2)o1)c1ccc(Cl)s1
growth inhibition at single dose: < 70%

c1ccc2c(NCCc3c[nH]c4ccccc34)c3ccccc3nc2c1
growth inhibition at single dose: < 70%

c1ccc2c(NCc3ccc(N4CCCC4)nc3)ncnc2c1
growth inhibition at single dose: < 70%

CN(C)S(=O)(=O)c1cccc(C(=O)Nc2cnc3ccccc3c2)c1
growth inhibition at single dose: < 70%

COc1ccccc1N1C(=N)SC(=Cc2ccc(OCc3ccccc3F)cc2)C1=O
growth inhibition at single dose: < 70%

O=C(Nc1ccc(N2CCOCC2)nc1)c1ccc(S(=O)(=O)N2CCCc3ccccc32)cc1
growth inhibition at single dose: < 70%

COc1ccc(C2N(C)c3ccccc3N2C)cc1
growth inhibition at single dose: < 70%

Cc1cc(N)c(N)cc1C
growth inhibition at single dose: < 70%

O=c1cc(-c2ccccc2)[nH]c2ccccc12
growth inhibition at single dose: < 70%

CC(NCC(=O)N1c2ccc(S(N)(=O)=O)cc2CC1C)C1CC2CCC1C2 (centres undefined)
growth inhibition at single dose: < 70%

O=C(Nc1ccc(F)c(-c2nc3cc(-c4ccccc4)cnc3[nH]2)c1)N1CCCC1
growth inhibition at single dose: < 70%

Oc1ccccc1CN1CCC2(CCCN(Cc3ccccc3F)C2)C1 (centres undefined)
growth inhibition at single dose: < 70%

COCCN(C(=O)Cc1cccs1)C(C(=O)NCc1ccc(OC)cc1)c1ccc(C(C)C)cc1 (centres undefined)
growth inhibition at single dose: < 70%

Cc1ccccc1NC(=O)c1cc2ccccc2c(CN2CCC3(CC2)OCCO3)c1O
growth inhibition at single dose: < 70%

c1ccc(Nc2nc(-c3ccc4c(c3)OCCO4)cs2)nc1
growth inhibition at single dose: < 70%

CCc1c(C)nc(-n2nc(C)cc2NC(=O)c2ccccc2SC)[nH]c1=O
growth inhibition at single dose: < 70%

Nc1nccnc1C(=O)Nc1nc2cc3c(cc2s1)OCCO3
growth inhibition at single dose: < 70%

CN(c1ccccc1)S(=O)(=O)c1ccc(NC(=O)c2cccs2)cc1
growth inhibition at single dose: < 70%

CCCCCC(=O)N1c2ccccc2N=C2CC(c3ccc(OC)c(OC)c3)CC(O)=C2C1c1ccc(C(F)(F)F)cc1 (centres undefined)
growth inhibition at single dose: < 70%

CCOc1ccc(S(=O)(=O)CC2=NCCc3cc(OC)c(OC)cc32)cc1
growth inhibition at single dose: < 70%

COCC(C)n1c(C)cc(C(=O)CSc2ccc(NC(C)=O)cc2)c1C (centres undefined)
growth inhibition at single dose: < 70%

O=C(Nc1cccc(-c2nc3ccccc3[nH]2)c1)c1cccc(NC(=O)c2ccco2)c1
growth inhibition at single dose: < 70%

Cc1cccc(C(=O)Nc2ccnc(N(C)C3CCN(CC(C)C)CC3)c2)c1
growth inhibition at single dose: < 70%

CO/N=C(\C(=O)OC)c1ccccc1CO/N=C(\C)c1cccc(C(F)(F)F)c1
growth inhibition at single dose: < 70%

COc1ccc(CN2CCN(Cc3ccccc3)CC2)c(O)c1
growth inhibition at single dose: < 70%

Cc1cc(Nc2ccncc2)n2nc(C)c(-c3ccccc3Cl)c2n1
growth inhibition at single dose: < 70%

O=C(NCC(c1ccsc1)N1CCCCCC1)c1ccc(C(F)(F)F)cc1 (centres undefined)
growth inhibition at single dose: < 70%

CCS(=O)(=O)c1ncc(Cl)c(C(=O)Nc2ccccc2C(F)(F)F)n1
growth inhibition at single dose: < 70%

Cc1sc(NC(=O)c2ccco2)c(C(c2cccnc2)N2CCC(Cc3ccccc3)CC2)c1C (centres undefined)
growth inhibition at single dose: < 70%

CCCOc1ccc(/C=N/NC(=S)Nc2ccccc2[N+](=O)[O-])c(O)c1
growth inhibition at single dose: < 70%

Cc1ccc(Cl)cc1N1CCN(CCCNC(=O)C2CCN(c3nc4ccccc4[nH]3)CC2)CC1
growth inhibition at single dose: < 70%

COc1ccc(CCN2C(=O)c3[nH]nc(-c4cc(Cl)c(C)cc4O)c3C2c2ccccc2F)cc1 (centres undefined)
growth inhibition at single dose: < 70%

Cc1cccc(N2CCN(C(=O)c3ccc4[nH]c(C)c(C)c4c3)CC2)c1C
growth inhibition at single dose: < 70%

COC(=O)[C@@H](NC(=O)Nc1ccc(-c2nc3ccccc3s2)cc1)C(C)C
growth inhibition at single dose: < 70%

Cc1ccc(N2C(=O)C3C(C2=O)C2(c4ccccc4)C(=O)C3(c3ccccc3)C(c3ccccc3)=C2c2ccccc2)cc1 (centres undefined)
growth inhibition at single dose: < 70%

O=C1c2ccccc2-c2nnc(-c3ccc(Br)cc3)cc21
growth inhibition at single dose: < 70%

COc1ccc(-c2nc(C(=O)N3CCc4ccccc43)cs2)cc1OC
growth inhibition at single dose: < 70%

NS(=O)(=O)c1cncc(-c2ccc3nccc(-c4cn[nH]c4)c3n2)c1
growth inhibition at single dose: < 70%

CCC(c1ccccc1)c1nn2c(-c3cccs3)nnc2s1 (centres undefined)
growth inhibition at single dose: < 70%

CCOc1cc2c(cc1OCC)C(c1cc(C)c(O)c(C)c1)NCC2 (centres undefined)
growth inhibition at single dose: < 70%

Cc1cnc(CCNC(=O)c2cc(-c3ccc(Cl)cc3)cs2)[nH]1
growth inhibition at single dose: < 70%

CC(=O)c1cc2c(N)c(-c3nc(C(C)(C)C)no3)sc2nc1C
growth inhibition at single dose: < 70%

Cc1c(C)c(C)c(S(=O)(=O)N2CCN(C(C)C(=O)NC3CC3)CC2)c(C)c1C (centres undefined)
growth inhibition at single dose: < 70%

Cc1cc(/C=C/C(=O)Nc2nccs2)c(C)n1-c1ccccc1
growth inhibition at single dose: < 70%

CCCCn1nc(C)c(C(=O)Nc2nc3ccccc3[nH]2)c1Cl
growth inhibition at single dose: < 70%

COc1ccc2c(c1)CCCC21NC(=O)N(Cc2nc3ccccc3s2)C1=O (centres undefined)
growth inhibition at single dose: < 70%

CNC(=O)c1nn(C)c2c1C(C)(C)Cc1cnc(Nc3ccc(N4CCN(C)CC4)cc3)nc1-2
growth inhibition at single dose: < 70%

COC(=O)c1cc(OC)c(OC)cc1NS(=O)(=O)c1ccc(OC)cc1
growth inhibition at single dose: < 70%

CSC1=NC(=Nc2c(C)cccc2C)C2(CCC(C(C)(C)C)CC2)N1c1ccc(Cl)cc1 (centres undefined)
growth inhibition at single dose: < 70%

Cc1cc(Nc2ccc(C)c(Cl)c2)n2nc(C(F)(F)F)nc2n1
growth inhibition at single dose: < 70%

Cc1ccc(C(=O)Nc2ccc(S(=O)(=O)O)c3cc(S(=O)(=O)O)cc(S(=O)(=O)O)c23)cc1NC(=O)c1cccc(NC(=O)Nc2cccc(C(=O)Nc3cc(C(=O)Nc4ccc(S(=O)(=O)O)c5cc(S(=O)(=O)O)cc(S(=O)(=O)O)c45)ccc3C)c2)c1
growth inhibition at single dose: < 70%

COc1cc2c3cc1Oc1c(OC)c(OC)cc4c1C(Cc1ccc(O)c(c1)Oc1ccc(cc1)CC3N(C)CC2)N(C)CC4 (centres undefined)
growth inhibition at single dose: < 70%

c1coc(CNc2nc(N3CCCCC3)nc3ccccc23)c1
growth inhibition at single dose: < 70%

Nn1c(SCC(=O)c2c[nH]c3ccccc23)nnc1C(F)(F)F
growth inhibition at single dose: < 70%

Nc1nc(Nc2cc(Cl)cc(Cl)c2)c2[nH]cnc2n1
growth inhibition at single dose: < 70%

CCOC(=O)c1[nH]c(C)c(C(=O)OCC(=O)Nc2ccc(Cl)cn2)c1C
growth inhibition at single dose: < 70%

O=C(Nc1ccc(CNc2ncnc3cc(Cl)ccc23)cc1)C1CC1
growth inhibition at single dose: < 70%

CNC(=O)C1Cc2ccccc2N1C(=O)Cc1ccc(F)cc1 (centres undefined)
growth inhibition at single dose: < 70%

O=C(Nc1ncccc1O)c1ccc(S(=O)(=O)NCCc2cccs2)cc1
growth inhibition at single dose: < 70%

Cc1c(C)n(CCCO)c2ncn3nc(-c4ccc(N(C)C)cc4)nc3c12
growth inhibition at single dose: < 70%

COc1cc(C(=O)c2c(-c3ccccc3)cc3ccccn23)cc(OC)c1OC
growth inhibition at single dose: < 70%

CCOc1ccc(-c2nc(CC(=O)NCc3ccnc(OC)c3)cs2)cc1
growth inhibition at single dose: < 70%

Cc1cccc(C2CC(=O)c3cnn(-c4nc(C)cc(C)n4)c3C2)c1 (centres undefined)
growth inhibition at single dose: < 70%

COc1cccc(C2(C)Nc3ccccc3-c3nc4ccccc4n32)c1 (centres undefined)
growth inhibition at single dose: < 70%

COc1ccc2nc(C)cc(Nc3ccccc3O)c2c1
growth inhibition at single dose: < 70%
